Results taken from PMC7716246 (ACS chemical neuroscience, 2020).
Like-named read-outs stand apart in the source and are kept apart here.

Legend:
[1] = molecular target: T1, Aβ42 fibrils (Homo sapiens, UniProt P05067); assay type: biochemical; conditions: 25 μM, 37 °C; for Disaggregation of Aβ42 aggregates (TEM, native gel/Western blot): 24 h then 24 h with AMF
[2] = Cu^2+-induced ascorbate consumption assay; assay type: biochemical; conditions: [Cu^2+] = 10 μM, [AMF] = 24 μM, [ascorbate] = 100 μM
[3] = 2:1 Metal:AMF mixture, [M^2+]tot = 25 μM, [AMF]tot = 50 μM
[4] = system: amyloid plaques; assay type: binding, 5xFAD transgenic mice; conditions: brain sections of 7 month old 5xFAD mice
[5] = pH 7.4; 2:1 Metal:AMF mixture, [M^2+]tot = 25 μM, [AMF]tot = 50 μM
[6] = molecular target: T2, Aβ42 peptide (Homo sapiens, UniProt P05067); assay: Inhibition of Aβ42 aggregation, TEM and native gel electrophoresis/Western blot; assay type: biochemical; conditions: 37 °C, 24 h; for Aβ42 aggregates observed by TEM: [Aβ42] = [M^2+] = [AMF] = 25 μM; for Aβ42 aggregates by native gel/Western blot: 25 μM
[7] = molecular target: T2, Aβ42 peptide; assay: Inhibition of Aβ42 aggregation, ThT fluorescence; assay type: biochemical; conditions: in presence and absence of Cu^2+ or Zn^2+; [Aβ] = [M^2+] = [AMF] = 25 μM, 37 °C, 24 h
[8] = molecular target: T1, Aβ42 fibrils; assay: Disaggregation of preformed Aβ42 fibrils, ThT fluorescence; assay type: biochemical; conditions: in the absence and presence of Cu^2+; [Aβ] = [M^2+] = [AMF] = 25 μM, additional 24 h at 37 °C
[9] = UV-vis Cu^2+ binding and Job's plot analysis of AMF:Cu^2+ stoichiometry; assay type: physicochemical
[10] = molecular target: Aβ fibrils (Aβ40) (Homo sapiens, UniProt P05067); assay: Thioflavin T; assay type: binding
Chain of Aβ fibrils (Aβ40) (P05067 672-711 limits assumed): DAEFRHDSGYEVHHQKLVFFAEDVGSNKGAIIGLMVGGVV

T2 sequence (P05067 672-713 limits assumed): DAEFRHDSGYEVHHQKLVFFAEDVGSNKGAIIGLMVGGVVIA
T1 sequence (P05067 672-713 limits assumed): as above

Question: Which “Disaggregation of Aβ42 aggregates (TEM, native gel/Western blot)” value ([1]; Cu^2+-incubated Aβ42 aggregates) does the source give for `O=c1cc(-c2ccc(O)c(-c3c(O)cc(O)c4c(=O)cc(-c5ccc(O)cc5)oc34)c2)oc2cc(O)cc(O)c12` [AMF, amentoflavone] here?
Answer: The value was “reduction in the amount of both large aggregates and smaller Aβ42 oligomers”.

Question: And the “Disaggregation of Aβ42 aggregates (TEM, native gel/Western blot)” value ([1]; Zn^2+-incubated Aβ42 amorphous aggregates)?
Answer: The value was “decreases to some extent”.

Question: What about the “Disaggregation of Aβ42 fibrils (TEM, native gel/Western blot)” value ([1]; no metal ions, 24 h fibrilization then 24 h with AMF) of the same compound?
Answer: The value was “disaggregates the Aβ42 fibrils efficiently”.

Question: What about the “Effect on ascorbate consumption” value ([2]; AMF added to the Cu^2+-Aβ42-ascorbate solution, [Aβ42] = 12 μM) of the same compound?
Answer: Its value is “efficiently reduce the consumption of ascorbate”.

Question: What about the “Effect on ascorbate consumption” value ([2]; premixed AMF-Cu^2+ complex, with monomeric Aβ42 12 μM) of the same compound?
Answer: Its value is “significant inhibition of the ascorbate consumption”.

Question: What about the “pCu (pM = −log[M]free)” value ([3]; pH 6.6) of the same compound?
Answer: Its value is 9.62.

Question: And the “pCu (pM = −log[M]free)” value ([3]; pH 7.4)?
Answer: The value was 10.44.

Question: And the “Fluorescence intensity of stained brain sections” value ([4]; 25 μM)?
Answer: The value was “strong fluorescent intensity”.

Question: And the “Pearson's correlation coefficient, colocalization with HJ3.4 immunofluorescence” value ([4]; [AMF] = [Cu^2+] = 25 μM, [HJ3.4] = 1 μg/mL)?
Answer: The value was 0.65.

Question: What about the “pZn (pM = −log[M]free)” value [5] of the same compound?
Answer: The value was 8.15.

Question: And the “Aβ42 aggregates observed by TEM” value ([6]; in the absence and presence of Cu^2+)?
Answer: The value was “only small amorphous aggregates were observed”.

Question: And the “Aβ42 aggregates by native gel/Western blot” value ([6]; in the presence of Cu^2+)?
Answer: Its value is “the amount of soluble Aβ42 oligomers is also reduced”.

Question: What about the “Aβ42 aggregates by native gel/Western blot” value ([6]; in the presence of Zn^2+) of the same compound?
Answer: The value was “a wide range of various-size aggregates is formed”.

Question: What about the “Aβ42 aggregates observed by TEM” value ([6]; in the presence of Zn^2+) of the same compound?
Answer: The value was “a range of amorphous and fibrillar aggregates is formed”.

Question: What about the “Aβ42 aggregates by native gel/Western blot” value ([6]; no metal ions) of the same compound?
Answer: The value was “dramatically reduces the amount of large Aβ42 aggregates”.

Question: And the “Effect on Aβ42 fibrillization (ThT fluorescence)” value [7]?
Answer: Its value is “dramatically reduced the fibrillization of Aβ42”.

Question: And the “Disaggregation of preformed Aβ42 fibrils (ThT fluorescence)” value [8]?
Answer: The value was “efficient at reducing the amount of Aβ42 fibrils”.

Question: And the “Break in Job's plot” value ([9]; AMF and Cu^2+ in EtOH-PBS (1:10))?
Answer: The value was 0.7 mole fraction of Cu.

Question: What about the “Cu bound per AMF (stoichiometry)” value ([9]; from Job's plot) of the same compound?
Answer: The value was “at least 2 equiv”.

Question: What about the Ki [10] of the same compound?
Answer: The Ki was 0.287 ± 0.02 µM.
